From US20120220453A1, “PESTICIDAL COMPOSTIONS AND PROCESSES RELATED THERETO” (priority 2011, published 2012)
Read-outs that look alike come from different tables or passages of the source.

Columns and labels:
Assay type in all cases: in vivo
[1] = test system: Sweet Potato Whitefly (WF) (Bemisia tabaci); assay: Bioassay on Sweet Potato Whitefly (WF), foliar spray on cotton plants; details: 216 h, 200 ppm foliar spray on cotton plants, graded after 9 days, Abbott corrected % control, read-out: WF @ 200 ppm, % Control (or Mortality) rating
Experimental: Certain molecules disclosed in this document were tested against WF using procedures described in the following example. In the reporting of the results, the “Table 4: GPA, Scale and WF Rating Table” was used (See Table Section).
Cotton plants (Gossypium hirsutum) grown in 3-inch pots, with 1 small (4-5 cm) true leaves, were used as test substrate. The plants were infested with 200-400 whitefly eggs 4-5 days prior to chemical application. Four pots with individual plants were used for each treatment. Test compounds (2 mg) were dissolved in 1 mL of acetone solvent, forming stock solutions of 2000 ppm test compound. The stock solutions were diluted 10× with 0.025% Tween 20 in H2O (diluents) to obtain the solution at 200 ppm test compound. A hand-held aspirator-type sprayer was used for spraying a solution to both sides of cotton leaves until runoff. Reference plants (solvent check) were sprayed with the diluent only containing 10% by volume of acetone solvent. Treated plants were held in a holding room for 9 days at approximately 25° C. and ambient relative humidity (RH) prior to grading. Evaluation was conducted by counting the number of live 3-4 nymphal stage per plant under a microscope. Percent Control was measured by using Abbott's correction formula (W. S. Abbott, “A Method of Computing the Effectiveness of an Insecticide” J. Econ. Entomol. 18 (1925), pp. 265-267) as follows.
Corrected % Control=100*(X−Y)/X • where • X=No. of live nymphs on solvent check plants and • Y=No. of live nymphs on treated plants.
(§1) The results are indicated in the table entitled “Table 5: BAW, CEW, GPA, Scale and WF Results” (See Table Section).

[2] = test system: Green Peach Aphid (GPA) (Myzus persicae); assay: Bioassay on Green Peach Aphid (GPA), foliar spray on cabbage seedlings; details: 72 h, 200 ppm foliar spray on cabbage seedlings, graded after three days, Abbott corrected % control, read-out: GPA @ 200 ppm, % Control (or Mortality) rating
Experimental: Certain molecules disclosed in this document were tested against GPA using procedures described in the following example. In the reporting of the results, the “Table 4: GPA, Scale and WF Rating Table” was used (See Table Section).
Cabbage seedlings grown in 3-inch pots, with 2-3 small (3-5 cm) true leaves, were used as test substrate. The seedlings were infested with 20-50 GPA (wingless adult and nymph stages) one day prior to chemical application. Four pots with individual seedlings were used for each treatment. Test compounds (2 mg) were dissolved in 2 mL of acetone/methanol (1:1) solvent, forming stock solutions of 1000 ppm test compound. The stock solutions were diluted 5× with 0.025% Tween 20 in H2O to obtain the solution at 200 ppm test compound. A hand-held aspirator-type sprayer was used for spraying a solution to both sides of […] leaves until runoff. Reference plants (solvent check) were sprayed with the diluent only containing 20% by volume of acetone/methanol (1:1) solvent. Treated plants were held in a holding room for three days at approximately 25° C. and ambient relative humidity (RH) prior to grading. Evaluation was conducted by counting the number of live aphids per plant under a microscope. Percent Control was measured by using Abbott's correction formula (W. S. Abbott, “A Method of Computing the Effectiveness of an Insecticide” J. Econ. Entomol. 18 (1925), pp. 265-267) as follows.
Corrected % Control=100*(X−Y)/X • where • X=No. of live aphids on solvent check plants and • Y=No. of live aphids on treated plants
as §1

[3] = test system: Beet Armyworm (BAW) (Spodoptera exigua); assay: Bioassay on Beet Armyworm (BAW), 128-well diet tray assay; details: 120 h
Experimental: Certain molecules disclosed in this document were tested against BAW and CEW using procedures described in the following examples. In the reporting of the results, the “Table 3: BAW & CEW Rating Table” was used (See Table Section).
Bioassays on BAW (Spodoptera exigua)
Bioassays on BAW were conducted using a 128-well diet tray assay. […] Trays were covered with a clear self-adhesive cover, and held at 25° C., 14:10 light-dark for five days. Percent mortality was recorded for the larvae in each well; activity in the eight wells was then averaged. The results are indicated in the table entitled “Table 5: BAW, CEW, GPA, Scale and WF Results” (See Table Section).

[4] = test system: San Jose Scale (Quadraspidiotus perniciosus); assay: Bioassay on San Jose Scale, foliar spray on cotton plants; details: Diaspidiotus perniciosus, 216 h; 200 ppm foliar spray on cotton plants, live nymphs counted 9 days after infestation, Abbott corrected % control; read-out: Scale @ 200 ppm, % Control (or Mortality) rating
Experimental: Certain molecules disclosed in this document were tested against Scale using procedures described in the following example. In the reporting of the results, the “Table 4: GPA, Scale and WF Rating Table” was used (See Table Section).
Cotton plants (Gossypium hirsutum) grown in 3-inch pots, with 1 small (4-5 cm) true leaves, were used as test substrate. The plants were infested with 200-400 scale crawlers 1-2 hours after chemical application. Four pots with individual plants were used for each treatment. Test compounds (2 mg) were dissolved in 1 mL of acetone solvent, forming stock solutions of 2000 ppm test compound. The stock solutions were diluted 10× with 0.025% Tween 20 in H2O (diluents) to obtain the solution at 200 ppm test compound. A hand-held aspirator-type sprayer was used for spraying a solution to both sides of cotton leaves until runoff. Reference plants (solvent check) were sprayed with the diluent only containing 10% by volume of acetone solvent. Treated plants were held in a holding room for three days at approximately 25° C. and ambient relative humidity (RH) prior to grading. Evaluation was conducted by counting the number of live 2-3 nymphal stage per plant under a microscope 9 days after infestation. Percent Control was measured by using Abbott's correction formula (W. S. Abbott, “A Method of Computing the Effectiveness of an Insecticide” J. Econ. Entomol. 18 (1925), pp. 265-267) as follows.
Corrected % Control=100*(X−Y)/X • where • X=No. of live nymphs on solvent check plants and • Y=No. of live nymphs on treated plants
as §1

[5] = second instar larvae on treated artificial diet, five days, 25° C., read-out: BAW, % Control (or Mortality) rating

Row | SMILES | mortality at 200 ppm [1] | mortality at 200 ppm [2] | mortality ([3]; read-out: BAW, % Control (or Mortality) rating) | mortality at 200 ppm [4] | mortality [3, 5] | mortality ([3]; 200 ppm, second instar larvae on treated artificial diet, five days, 25° C., read-out: BAW @ 200 ppm, % Control (or Mortality) rating)
1 | FC(F)(F)c1cccc(-c2cnn(-c3cccnc3)c2)n1 [Compound 1, 2-(1-(pyridin-3-yl)-1H-pyrazol-4-yl)-6-(trifluoromethyl)pyridine] | 0 to 80% | 80 to 100% | 50 to 100% | 80 to 100% |  | 
2 | FC(F)(F)c1ccc(-c2cnn(-c3cccnc3)c2)cn1 [Compound 2, 5-(1-(pyridin-3-yl)-1H-pyrazol-4-yl)-2-(trifluoromethyl)pyridine] |  | 80 to 100% |  | 0% | 50 to 100% | 
3 | Cc1nn(-c2cncc(F)c2)cc1-c1cccc(C(F)(F)F)n1 [Compound 3, 2-(1-(5-fluoropyridin-3-yl)-3-methyl-1H-pyrazol-4-yl)-6-(trifluoromethyl)pyridine] |  | 80 to 100% |  | 80 to 100% | 50 to 100% | 
4 | Cc1nn(-c2cccnc2)cc1-c1cccc(C(F)(F)F)n1 [Compound 4] |  | 80 to 100% |  | 80 to 100% | 50 to 100% | 
5 | Cc1nn(-c2cccnc2)cc1-c1ccnc(C(F)(F)F)n1 [Compound 5] |  | 80 to 100% |  | 80 to 100% | 50 to 100% | 
6 | Fc1cncc(-n2cc(-c3cccc(C(F)(F)F)n3)c(Cl)n2)c1 [Compound 7] |  | 80 to 100% |  | 80 to 100% | 50 to 100% | 
7 | Cc1nccc(-c2cn(-c3cccnc3)nc2C)n1 [Compound 8] |  | 80 to 100% |  | 80 to 100% | 50 to 100% | 
8 | COc1ccnc(-c2cn(-c3cccnc3)nc2C)n1 [Compound 9] |  | 80 to 100% |  | 80 to 100% | 50 to 100% | 
9 | Cc1nn(-c2cccnc2)cc1-c1cc(C(F)(F)F)ncn1 [Compound 10] |  | 80 to 100% |  | 80 to 100% | 50 to 100% | 
10 | COc1cc(-c2cn(-c3cccnc3)nc2C)ncn1 [Compound 11] |  | 80 to 100% |  | 0 to 80% |  | 50 to 100%
11 | COc1cc(-c2cn(-c3cccnc3)nc2C)nc(OC)n1 [Compound 12] |  | 80 to 100% |  | 0 to 80% | 50 to 100% | 
12 | CSc1nc(-c2cn(-c3cccnc3)nc2C)cc(C(F)(F)F)n1 [Compound 13] |  | 0 to 80% |  | 0 to 80% | 50 to 100% | 
13 | CSc1cccc(-c2cn(-c3cccnc3)nc2C)c1 [Compound 17, 3-(3-methyl-4-(3-(methylthio)phenyl)-1H-pyrazol-1-yl)pyridine] | 0% | 80 to 100% |  | 0 to 80% | 50 to 100% | 
14 | COc1cccc(-c2cn(-c3cccnc3)nc2C)n1 [Compound 19] | 0 to 80% | 80 to 100% |  | 80 to 100% | 50 to 100% | 
15 | Cc1nn(-c2cccnc2)cc1-c1ccc(C(F)(F)F)cn1 [Compound 21] | 80 to 100% | 80 to 100% |  | 80 to 100% | 50 to 100% | 
16 | Cc1nn(-c2cccnc2)cc1-c1cc(C(F)(F)F)ccn1 [Compound 22] | 80 to 100% | 80 to 100% |  | 80 to 100% | 50 to 100% | 
17 | Cc1nn(-c2cccnc2)cc1-c1cccnc1 [Compound 23] | 0 to 80% | 80 to 100% |  | 80 to 100% | 50 to 100% | 
18 | COc1ccc(-c2cn(-c3cccnc3)nc2C)cn1 [Compound 25] | 0 to 80% | 80 to 100% |  | 80 to 100% | 50 to 100% | 
19 | Cc1ccc(-c2cn(-c3cccnc3)nc2C)cn1 [Compound 26] | 80 to 100% | 80 to 100% |  | 80 to 100% | 50 to 100% | 
20 | Cc1cncc(-c2cn(-c3cccnc3)nc2C)c1 [Compound 27] | 80 to 100% | 80 to 100% |  | 0 to 80% | 50 to 100% | 
21 | Cc1ncccc1-c1cn(-c2cccnc2)nc1C [Compound 28] | 0 to 80% | 80 to 100% |  | 80 to 100% | 50 to 100% | 
22 | Cc1nn(-c2cccnc2)cc1-c1ccc(C(F)(F)F)nc1 [Compound 29] | 80 to 100% | 80 to 100% |  | 80 to 100% | 50 to 100% | 
23 | Cc1cc(-c2cn(-c3cccnc3)nc2C)ccn1 [Compound 30] | 0 to 80% | 80 to 100% |  | 0 to 80% | 50 to 100% | 
